Key:
RAW264.7 [1] = experiment: Antiinflammatory activity in LPS-induced mouse RAW264.7 cells assessed as inhibition of nitric oxide secretion at 20 microM incubated for 24 hrs by Griess reagent based assay relative to control; type: functional
RAW264.7 [2] = experiment: Cytotoxicity against mouse RAW264.7 cells assessed as cell viability at 20 microM incubated for 24 hrs by CCK-8 method relative to control; type: functional; conditions: read-out: Activity
SARS-CoV-2 [3] = experiment: Antiviral activity against SARS-CoV-2 Omicron BA.2 pseudovirus infected in human 293T/ACE2 cells assessed as virus inhibition at 50 microM incubated for 24 hrs by firefly luciferase assay relative to control; type: functional; conditions: Severe acute respiratory syndrome coronavirus 2, Omicron BA.2, 293T/ACE2
[4] = Cytotoxicity against human 293T/ACE2 cells assessed as cell viability at 100 microM incubated for 24 hrs by CellTiter assay relative to control; type: functional; conditions: read-out: Activity
RAW264.7 [5] = experiment: Antiinflammatory activity in LPS-induced mouse RAW264.7 cells assessed as inhibition of nitric oxide secretion incubated for 24 hrs by Griess reagent based assay; type: functional, cell-based; conditions: RAW264.7, 24 h
SARS-CoV-2 [6] = experiment: Antiviral activity against SARS-CoV-2 Omicron BA.2 pseudovirus infected in human 293T/ACE2 cells assessed as virus inhibition incubated for 24 hrs by firefly luciferase assay; type: functional, organism-based; conditions: Severe acute respiratory syndrome coronavirus 2, Omicron BA.2, 293T/ACE2, 24 h

Row | SMILES | inhibition at 20 µM (RAW264.7 [1]) [%] | viability at 20 µM (RAW264.7 [2]) [%] | inhibition at 50 µM (SARS-CoV-2 [3]) [%] | viability at 100 µM [4] [%] | IC50 (RAW264.7 [5]) [µM] | IC50 (SARS-CoV-2 [6]) [µM]
1 | CC(=O)/C(C)=C1/C[C@H]2O[C@@H](O)[C@]34CC[C@H]5C(C)=CC(=O)C[C@@H]6O[C@H](C=C(C)[C@@]23O1)[C@@H]4[C@@]65C | 31 | 96 | 15 | 92 |  | 
2 | CC1=CC[C@@H]2[C@@]3(C)C=CC(=O)[C@@](C)(CO)[C@@H]3CC[C@@]2(C)[C@]12Cc1c(c(C)c(C)oc1=O)O2 | 49 | 87 | 14 | 97 |  | 
3 | CC1=CC(=O)C=C[C@]2(C)[C@H]3[C@@H](O)C=C(C)[C@@]4(Cc5c(c(C)c(C)oc5=O)O4)[C@]3(C)CC[C@@H]12 [BREVIONE F] | 79 | 100 | 5 | 97 | 12.9 | 
4 | CC1=CC(=O)C[C@@H]2O[C@@H]3C=C(C)[C@@]4(Cc5c(c(C)c(C)oc5=O)O4)[C@]4(C)CC[C@@H]1[C@@]2(C)[C@@H]34 | 25 | 100 | 0 | 95 |  | 
5 | CC1=CC(=O)C=C[C@]2(C)[C@H]3[C@@H](O)[C@@H]4O[C@]4(C)[C@@]4(Cc5c(c(C)c(C)oc5=O)O4)[C@]3(C)CC[C@@H]12 | 63 | 100 | 69 | 99 |  | 10.3
6 | CC1=CC(=O)[C@@H]2[C@@]3(C)C=CC(=O)C(C)(C)[C@@H]3CC[C@@]2(C)[C@]12Cc1c(c(C)c(C)oc1=O)O2 | 87 | 100 | 23 | 95 | 5.3 | 
7 | CC1=CC(=O)C=C[C@]2(C)[C@H]3CC=C(C)[C@@]45Oc6c(C)c(C)oc(=O)c6[C@@H]4O[C@@H](O)[C@@]35CC[C@@H]12 | 69 | 91 | 28 | 93 |  | 
8 | CC(C)(C)c1ccc(S(=O)(=O)/C=C/C#N)cc1 [BAY-11-7085] | 77 | 100 | 99 | 99 | 13.3 | 0.74
9 | CC1=CC(=O)C[C@@H]2O[C@@H]3C=C(C)[C@@]45Oc6c(C)c(C)oc(=O)c6[C@@H]4O[C@@H](O)[C@]54CC[C@@H]1[C@@]2(C)[C@@H]34 | 35 | 100 | 0 | 99 |  | 
10 | CC1=CC(=O)C[C@@H]2O[C@@H]3C=C(C)[C@]4(Oc5c(C)c(C)oc(=O)c5[C@@H]4O)[C@]4(C)CC[C@@H]1[C@@]2(C)[C@@H]34 | 52 | 100 | 43 | 92 |  | 
11 | CC1=CC(=O)[C@@H]2[C@@]3(C)[C@H](O)CC(=O)C(C)(C)[C@@H]3CC[C@@]2(C)[C@]12Cc1c(c(C)c(C)oc1=O)O2 | 45 | 99 | 28 | 91 |  | 
12 | CC(=O)O[C@@H]1O[C@@H]2C/C(=C(/C)C(C)=O)O[C@]23C(C)=C[C@H]2O[C@H]4CC(=O)C=C(C)[C@@H]5CC[C@@]13[C@H]2[C@@]45C | 34 | 100 | 57 | 92 |  | 
13 | CC1=CC(=O)C=C[C@]2(C)[C@H]3C(=O)C=C(C)[C@]4(Oc5c(C)c(C)oc(=O)c5[C@@H]4O)[C@]3(C)CC[C@@H]12 | 47 | 91 | 46 | 98 |  | 
14 | CO[C@H]1c2c(c(C)c(C)oc2=O)O[C@]12C(C)=C[C@H]1O[C@H]3CC(=O)C=C(C)[C@@H]4CC[C@]2(C)[C@H]1[C@@]34C | 57 | 85 | 0 | 92 |  | 
15 | CC1=C[C@H](O)[C@@H]2[C@@]3(C)[C@H](O)C(=O)[C@H](O)C(C)(C)[C@@H]3CC[C@@]2(C)[C@]12Cc1c(c(C)c(C)oc1=O)O2 | 35 | 100 | 11 | 93 |  | 
16 | CC(=O)/C(C)=C1\C[C@H]2O[C@@H](O)[C@]34CC[C@H]5C(C)=CC(=O)C[C@@H]6O[C@H](C=C(C)[C@@]23O1)[C@@H]4[C@@]65C | 38 | 100 | 0 | 90 |  | 
17 | CC1=C[C@H](O)[C@@H]2[C@@]3(C)C[C@@H](O)C(=O)C(C)(C)[C@@H]3CC[C@@]2(C)[C@]12Cc1c(c(C)c(C)oc1=O)O2 | 38 | 100 | 0 | 93 |  | 
18 | CC1=CC(=O)C=C[C@]2(C)[C@H]3[C@@H]4C=C(C)[C@@]56Oc7c(C)c(C)oc(=O)c7[C@@H]5O[C@@H](O4)[C@@]36CC[C@@H]12 | 98 | 93 | 95 | 94 | 1.4 | 8.5
19 | CC1=CC(=O)C=C[C@]2(C)[C@H]3C(O)C=C(C)[C@@]4(Cc5c(c(C)c(C)oc5=O)O4)[C@]3(C)CC[C@@H]12 (stereo partly drawn) | 94 | 98 | 0 | 93 | 9.2 | 
20 | CC1=CC(=O)C[C@@H]2O[C@@H]3C=C(C)[C@@]45Oc6c(C)c(C)oc(=O)c6[C@@H]4OC[C@]54CC[C@@H]1[C@@]2(C)[C@@H]34 | 45 | 93 | 16 | 90 |  | 

Reference: ChEMBL document CHEMBL6120992, “Breviane Spiroditerpenoids with Anti-inflammatory and Antiviral Activities from Deep-Sea-Derived Fungus Penicillium sp. F59” (J Nat Prod, 2025)
